pIC50: −log10 of the molar value.
Assays:
Leishmania donovani [1] = test: (§1) GSK_TCAKS: pIC50 Leishmania donovani Imaging: Amastigotes/Macrophages. Assay plates (384-well) were prepared by adding 250nL of compound to each well. For single shot assay, the final compound concentration was 5 uM. […] Automated image analysis was performed with a script developed on Acapella High Content Imaging and Analysis Software (PerkinElmer). Output: Average number of amastigotes per macrophage cell were reported for each well.; format: functional, organism-based, Homo sapiens; conditions: THP-1
[2] = molecular target: Sterol 14-alpha demethylase (Trypanosoma cruzi (strain CL Brener), UniProt Q7Z1V1); test: GSK_TCAKS: pIC50 CYP51 from Trypanosoma cruzi.; format: functional
[3] = GSK_TCAKS: pIC50 HepG2 human cell line viability assay using luminiscence. […] Seeding density was checked to ensure that new mono-layers were not more than 50% confluent at the time of harvesting. Cell suspension was added to 500 mL of the same medium at a final density of 1.2 * 10^5 cells/mL. This cell suspension was dispensed (25 uL, 3000 cells per well) into 384-well clear-bottom plates using a Multidrop Combi dispenser. Prior to addition of the cell suspension, the screening compounds (250 nL) were pre-dispensed into the plates with an Echo liquid handler. Plates were incubated for 48 h at 37C, 5% CO2. After incubation, plates equilibrated at room temperature for 30 min before proceeding to develop the luminescent signal. The signal developer, CellTiter-Glo Reagent, was allowed to equilibrate at room temperature for 30 min and added to the plates (25uL per well) using a Multidrop Combi dispenser. Plates were left for 10 min at room temperature for stabilization and then read using a ViewLux.; format: toxicity, cell-based
[4] = test system: Trypanosoma brucei brucei; test: GSK_TCAKS: pIC50 Trypanosoma brucei viability assay using fluorescence intensity. Assay plates (1536-well) were prepared by dispensing 25nL of compound solution per well using an Echo acoustic dispenser (Labcyte).; format: functional, organism-based; conditions: Lister 427, 2 h
Trypanosoma cruzi [5] = test: (§2) GSK_TCAKS: pIC50 Trypanosoma cruzi Imaging: Infected Cells. […] Cells were then washed once with PBS before infection. T. cruzi trypomastigotes, collected at days 5 to 8 after infection from LLC-MK2 parasite infected cultures, were allowed to swim out for 4h at 37C from a centrifuged pellet (2,500 rpm/10 min/room temperature). Trypomastigotes were then collected and counted in a CASY Cell Counter. Trypomastigotes, in supplemented DMEM, were added to H9c2 cultures in a multiplicity of infection of 1 and incubated for 18 h. Cells were washed once with PBS before incubation of the infected H9c2 monolayer with trypsin (Life-Technologies) to detach cells from the flask. Cells were counted in a CASY Cell Counter using a 150 um capillary and their density set at 5 * 10^4 cells per mL in supplemented assay DMEM. Infected H9c2 were dispensed into 384-well poly-lysine coated assay plates at 50uL per well using a Multidrop Combi dispenser. After seeding them, the plates were incubated at 37C, 5% CO2 for 72h. Cultures were then fixed and stained by addition of 50 uL of a solution containing 8% formaldehyde and 4 uM DRAQ5 DNA dye (BioStatus, UK) per well. […] Five images were collected per well for reliable statistical analysis. Automated image analysis was performed with a script developed on Acapella High Content Imaging and Analysis Software (PerkinElmer). Output: percentage of infected cells per well as a second infection marker.; format: functional, organism-based, Rattus norvegicus; conditions: H9c2, 4 h
Leishmania donovani [6] = test: as §1, with “Infected Macrophages.” for “Amastigotes/Macrophages.”, “Percent” for “Average number”, “infected” for “amastigotes per”, “cells” for “cell”; format: functional, organism-based, Homo sapiens; conditions: THP-1
Trypanosoma cruzi [7] = test: GSK_TCAKS: pIC50 Trypanosoma cruzi viability assay using beta-GAL activity. This assay was run at single shot at 5uM compound concentration per well. The biological reagents consisted of NIH-3T3 host cells and trypomastigotes parasitic cells; both cell types were set to a 3.3 * 10^5 cells/mL dilution in assay DMEM by means of a CASY cell counter device using a 60um capillary. 6 uL of the mixture were dispensed per well (about 1 * 10^3 host-cells and 1 * 10^3 parasites) with a Multidrop Combi dispenser. […] In all wells, the percentage of DMSO never exceeded 0.5%. Plates incubated for four days at 37C, 5% CO2. The substrate used for the assay fluorescence intensity (FLINT) readout was resorufin-beta-D-galactopiranoside (Sigma-Aldrich) at 5uM per well. It was diluted in PBS supplemented with the soft detergent Igepal (Fluka).; format: functional, organism-based, Mus musculus; conditions: Tulahuen, NIH3T3
Leishmania donovani [8] = test: GSK_TCAKS: pIC50 Leishmania donovani viability assay using fluorescence intensity. Assay plates (1536-well) were prepared by adding 30nL per well of compound. For single shot assay, the final compound concentration was 5uM. […] Briefly, eGFP LdBOB axenic amastigotes were harvested, fixed and counted in a CASY cell counter (Roche-Applied Science). A final concentration of 1.5 * 10^5 cells per well were prepared in amastigote media containing 500 U/mL penicillin/streptomycin (Invitrogen) and 6uL was dispensed to each experimental well using a Multidrop Combi dispenser (Thermo Scientific). 6uL of assay media was dispensed to control columns used as reference for 100% compound response. Following incubation for 72 h at 37C, 5% CO2, 2 uL of resazurin was added to each well at a final concentration of 0.5 mM in phosphate buffered saline (PBS) with IGEPAL (Sigma-Aldrich), 0.05% (v/v).; format: functional, organism-based
[9] = test system: Trypanosoma brucei brucei; test: GSK_TCAKS: pIC50 Trypanosoma brucei viability assay using luminiscence. Assay plates (1536-well) were prepared. T. brucei cultures were harvested and counted in a CASY cell counter. A parasite suspension was prepared at a final concentration of 5 * 10^4 cells/mL in complete HMI9 medium and 6uL was dispensed to all wells containing compounds using a Multidrop Combi dispenser. 6uL of HMI9 media with 0.4% DMSO were dispensed to control columns. Plates were incubated for 24 h at 37C, 5% CO2 then tempered for 10 min at room temperature. ATP content was quantified by adding 4 uL of CellTiter-Glo Reagent (Promega) according to the manufacturer's instructions. Luminescence was measured using a ViewLux.; format: functional, organism-based; conditions: Lister 427, CASY
Trypanosoma cruzi [10] = test: as §2, with “H2C9” for “Trypanosoma cruzi”, “H9c2 Host Cardiomyocytes.” for “Infected Cells.”, “Number” for “percentage”, “H9c2 Host Cardiomyocytes nuclei to determine drug-related cytotoxicity.” for “infected cells per well as a second infection marker.”; format: functional, organism-based, Rattus norvegicus; conditions: H9c2, 4 h
Leishmania donovani [11] = test: as §1, with “THP-1 Host Macrophages.” for “Amastigotes/Macrophages.”, “THP-1” for “Average number of amastigotes per macrophage”, “cell count” for “cell”; format: functional, organism-based, Homo sapiens
Trypanosoma cruzi [12] = test: GSK_TCAKS: pIC50 Trypanosoma cruzi Imaging: Amastigotes/Cell. […] Cells were then washed once with PBS before infection. T. cruzi trypomastigotes, collected at days 5 to 8 after infection from LLC-MK2 parasite infected cultures, were allowed to swim out for 4h at 37C from a centrifuged pellet (2,500 rpm/10 min/room temperature). Trypomastigotes were then collected and counted in a CASY Cell Counter. Trypomastigotes, in supplemented DMEM, were added to H9c2 cultures in a multiplicity of infection of 1 and incubated for 18 h. Cells were washed once with PBS before incubation of the infected H9c2 monolayer with trypsin (Life-Technologies) to detach cells from the flask. Cells were counted in a CASY Cell Counter using a 150 um capillary and their density set at 5 * 10^4 cells per mL in supplemented assay DMEM. Infected H9c2 were dispensed into 384-well poly-lysine coated assay plates at 50uL per well using a Multidrop Combi dispenser. After seeding them, the plates were incubated at 37C, 5% CO2 for 72h. Cultures were then fixed and stained by addition of 50 uL of a solution containing 8% formaldehyde and 4 uM DRAQ5 DNA dye (BioStatus, UK) per well. […] Five images were collected per well for reliable statistical analysis. Automated image analysis was performed with a script developed on Acapella High Content Imaging and Analysis Software (PerkinElmer). Output: number of amastigotes per cell as infection level measurement.; format: functional, organism-based, Rattus norvegicus; conditions: H9c2, 4 h
NIH3T3 = test: GSK_TCAKS: pIC50 NIH 3T3 cell line viability assay using luminiscence. Tissue culture surface treated assay plates (1536-well) were used. […] The 100% cells survival control was determined exposing the host-cells to a 0.5% DMSO concentration, whereas the 100% toxicity control was achieved by seeding the cells in presence of Amphotericin B at 50uM. Plates were incubated for four days at 37C, 5% CO2. The assay readout was developed by addition of 5uL of CellTiter-Glo Reagent following the manufacturer's instructions. Luminiscence was measured using a ViewLux.; format: functional, cell-based; conditions: Mus musculus, NIH3T3, 96 h

Sequence of Sterol 14-alpha demethylase (Q7Z1V1 whole entry): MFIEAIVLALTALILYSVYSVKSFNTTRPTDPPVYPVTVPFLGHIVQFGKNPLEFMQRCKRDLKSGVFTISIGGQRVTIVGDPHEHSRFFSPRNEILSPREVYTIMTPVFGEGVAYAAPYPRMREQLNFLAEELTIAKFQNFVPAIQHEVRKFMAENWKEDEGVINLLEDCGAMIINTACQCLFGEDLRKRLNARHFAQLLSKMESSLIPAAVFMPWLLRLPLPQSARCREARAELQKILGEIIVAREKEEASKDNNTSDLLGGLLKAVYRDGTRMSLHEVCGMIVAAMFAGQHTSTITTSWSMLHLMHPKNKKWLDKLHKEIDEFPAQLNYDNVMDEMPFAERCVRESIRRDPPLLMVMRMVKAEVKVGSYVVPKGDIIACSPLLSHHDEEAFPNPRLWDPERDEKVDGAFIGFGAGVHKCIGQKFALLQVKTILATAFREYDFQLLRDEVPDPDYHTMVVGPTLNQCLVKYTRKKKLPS

Row | Compound | pIC50 (Leishmania donovani [1]) | pIC50 [2] | IC50 at 48 h [3] [µM] | pIC50 [4] | pIC50 (Trypanosoma cruzi [5]) | pIC50 (Leishmania donovani [6]) | pIC50 (Trypanosoma cruzi [7]) | pIC50 (Leishmania donovani [8]) | pIC50 [9] | pIC50 (Trypanosoma cruzi [10]) | pIC50 (Leishmania donovani [11]) | pIC50 (Trypanosoma cruzi [12]) | pIC50 (NIH3T3)
1 | CS(=O)(=O)c1ccc(CC(=O)Nc2nc(-c3ccc(Cl)s3)cs2)cc1 | < 4.30 | < 4.00 | > 100 | 5.00 | 6.50 | < 4.30 | 6.40 | < 4.30 | < 4.40 | 4.80 | 4.80 | 6.40 | < 4.30
2 | CC1CN(S(=O)(=O)c2ccc(NC(=O)c3cc(C4CC4)nc4c3cnn4C(C)C)cc2)CC(C)O1 (stereo not drawn) | < 4.30 | < 4.00 | > 100 | 5.20 | 6.10 | < 4.30 | 6.20 | 4.70 | 5.20 | < 4.30 | 5.00 | 6.20 | < 4.30
3 | O=C(NCCc1cccnc1)c1csc(-c2ccccc2)n1 | < 4.30 | 7.20 | > 100 | 4.60 | 6.30 | < 4.30 | 6.55 | < 4.30 | < 4.40 | < 4.30 | < 4.30 | 6.40 | 4.30
4 | CC(=O)Nc1nc(-c2cc(C)ccc2C)c(C)s1 | 4.50 | < 4.00 | > 100 | < 4.40 | 6.70 | < 4.30 | 6.70 | < 4.30 | < 4.40 | < 4.30 | < 4.30 | 6.80 | 4.60
5 | O=c1[nH]c(C=Cc2cccc(OCCOc3ccccc3)c2)nc(O)c1[N+](=O)[O-] | < 4.30 | < 4.00 | > 100 | 5.00 | 6.70 | < 4.30 | 6.10 | < 4.30 | 5.00 | < 4.30 | < 4.30 | 6.80 | < 4.30
6 | Cn1nccc1-c1cc(OC(CN)c2ccccc2)cnc1-c1ccco1 (stereo not drawn) | 4.50 | 7.20 | 50.1 | 4.90 | 7.00 | < 4.30 | 6.40 | < 4.30 | 4.80 | < 4.30 | 4.80 | 7.00 | 4.70
7 | CN(Cc1cc2ccccc2s1)c1ncc2c(N)nc(N)nc2n1 | 4.60 | < 4.00 | 39.8 | 4.50 | 5.50 | 4.50 | 5.70 | 4.50 | 4.60 | 4.70 | 4.60 | 6.10 | 4.60
8 | Clc1ccc(OCCN2CCCCC2c2cccnc2)c(Cl)c1 (stereo not drawn) | 5.30 | 7.20 | 79.4 | 4.50 | 6.70 | < 4.30 | 6.40 | 5.30 | < 4.40 | < 4.30 | < 4.30 | 6.80 | 4.60
9 | O=C(NCCNc1noc(-c2ccc([N+](=O)[O-])cc2)n1)c1ccc(Cl)cc1 | < 4.30 | < 4.00 | > 100 | 5.50 | < 4.30 | < 4.30 | 5.70 | < 4.30 | < 4.40 | < 4.30 | 4.80 | 5.90 | < 4.30
10 | CN(Cc1cccnc1)Cc1ccc(N2CCN(C(=O)C3(c4ccc(Cl)cc4)CC3)CC2)nc1 | < 4.30 | 6.80 | > 100 | 4.50 | 5.80 | < 4.30 | 6.30 | 4.50 | 4.60 | < 4.30 | 5.00 | 5.90 | 5.10
11 | COc1ccc(S(=O)(=O)NC(C)C)cc1Nc1ncc(-c2cccc(F)c2)cn1 | < 4.30 | < 4.00 | > 100 | 4.70 | 6.40 | < 4.30 | 6.20 | 5.20 | < 4.40 | < 4.30 | < 4.30 | 6.50 | 5.30
12 | O=C(NCCc1ccccc1Cl)c1cccn1-c1cccnc1 | < 4.30 | 7.10 | > 100 | 4.50 | 6.30 | < 4.30 | 6.40 | 5.20 | < 4.40 | < 4.30 | < 4.30 | 6.30 | 4.50
13 | COc1ccc(S(=O)(=O)Nc2ccccc2OC)cc1NC(=O)CCCc1c[nH]c2ccccc12 | < 4.30 | < 4.00 | > 100 | 4.90 | 5.90 | < 4.30 | 5.80 | 4.60 | 4.50 | < 4.30 | < 4.30 | 6.00 | < 4.30
14 | Cc1nn(C2CCS(=O)(=O)C2)c(C)c1CN(C)C(=O)C=Cc1sc2ccccc2c1Cl (stereo not drawn) | 4.90 | 7.50 | > 100 | 5.00 | 6.30 | 4.40 | 6.20 | 4.90 | 4.60 | < 4.30 | 4.70 | 6.50 | < 4.30
15 | COc1ccc2c(Cl)c(C(=O)N3CCC3)sc2c1Cl | < 4.30 | < 4.00 | > 100 | 4.70 | 5.60 | < 4.30 | 6.35 | < 4.30 | < 4.40 | < 4.30 | < 4.30 | 6.10 | < 4.30
16 | Cc1cc(C)nc(N2CCC(N(Cc3cccnc3)C(=O)c3cccc(C#N)c3)CC2)n1 | < 4.30 | 6.90 | > 100 | < 4.40 | 6.50 | < 4.30 | 6.50 | 5.30 | < 4.40 | < 4.30 | < 4.30 | 6.40 | 5.10

Source: ChEMBL document CHEMBL3430912, “GSK Tres Cantos Anti-Kinetoplastid Screening (TCAKS) Data”
